Results published in patent publication US20240024301A1, “METHODS OF TREATING HEAD AND NECK SQUAMOUS CELL CARCINOMA” (Kura Oncology, Inc., priority 2022, published 2024).

Key:
[1] = tested on: CAL33 xenograft tumors; test: Immunohistochemistry of CAL33 CDX tumor samples; assay type: in vivo, mice; settings: alpelisib 40 mg/kg QD, tipifarnib 60 mg/kg BID, or the combination, 10 days
Procedure: CAL33 xenograft tumors treated with alpelisib (40 mg/kg QD), tipifarnib (60 mg/kg BID), or the combination, for 10 days were subjected to immunohistochemistry analysis to assess levels of cell proliferation and apoptosis.
Fixation of tumor samples was performed by zinc formalin (Z-Fix, Anatech) and tissues were paraffin-embedded; samples were sectioned into 5 μm sections. Samples were deparaffinized, hydrated with graded ethanols, and the endogenous peroxidase was blocked with 3% H2O2 in 70% ethanol. After washing with distilled water, antigen retrieval was performed with IHC antigen retrieval solution (ThermoFisher Scientific, #00-4955-58) in a microwave at the high setting. Slides were then washed with water and PBS, and incubated with the primary and secondary antibodies, and developed with the ABC reagent (Vector Laboratories, #PK-6100) and the DAB substrate kit (Vector Laboratories, #SK-4105). The following antibodies were used: Cleaved PARP (Cell Signaling Technology #9661, 1:400 dilution) and Ki67 (DACO #M7240, 1:50). Percent positive cells in three fields per slide were counted using a microscope.

[2] = tested on: PIK3CA-mutant CAL33 cells; test: Immunoblots of MAPK/PI3K pathway components and apoptotic markers; assay type: cell-based; settings: alpelisib 0, 1, 2, 6, 24 hours, absence or presence of tipifarnib (48-hour treatment)
Procedure: (§1) Immunoblots of MAPK/PI3K pathway components and apoptotic markers in PIK3CA-mutant CAL33 cells treated with alpelisib (BYL-719) for 0, 1, 2, 6, and 24 hours in the absence or presence of tipifarnib (48-hour treatment) are shown in FIG. 2A. A shift in Rheb and HRas protein mobility is indicative of defarnesylation. Generally, immunoblotting was performed as follows: Cell lysates were prepared on ice by washing cells once with PBS, resuspending in 1× cell lysis buffer (Cell Signaling Technology #9803) or RIPA buffer supplemented with Halt protease inhibitor cocktail (Thermo Scientific #78430) and briefly sonicated or vortexed. Lysates were cleared by centrifugation (maximum speed, 10 min) and protein concentration was determined by BCA assay (Pierce). Lysate (20-60 μg) was loaded onto 4-12% Bis-Tris gels (NuPAGE, Invitrogen) for electrophoresis and immunoblotting. When RAS was evaluated, active RAS was detected using Thermo Scientific kit #16117. Membrane and cytosolic fractions were isolated using the Mem-PER Plus Membrane Protein Extraction Kit (Thermo Scientific kit #89842).
However, by 24 hours, phosphorylation of these proteins partially or completely rebounded. […]

[3] = tested on: BICR22 cells; test: as above; assay type: cell-based; settings: BICR22 (PIK3CA copy gain); alpelisib 0, 1, 24 hours, absence or presence of tipifarnib (48-hour treatment)
Procedure: as §1
(§2) Immunoblots of MAPK/PI3K pathway components and apoptotic markers in high HRas protein (i.e., overexpression of wild-type HRas protein) HNSCC cell line SCC9 cells and in PIK3CA copy gain (amplified) BICR22 cells are shown in FIG. 2B and FIG. 2D, respectively. […]

[4] = tested on: SCC9 cells; test: as above; assay type: cell-based; settings: SCC9 (HRas high); alpelisib 0, 1, 24 hours, absence or presence of tipifarnib (48-hour treatment)
Procedure: as §1, §2

[5] = tested on: PIK3CA-mutant CAL33 tumors; test: Immunoblot and immunohistochemistry of treated CAL33 xenograft tumors; assay type: in vivo, athymic mice; settings: tipifarnib 60 mg/kg BID, 10 days
Procedure: To assess the underlying mechanism of tumor regression, the PIK3CA-mutant CAL33 tumors were treated with tipifarnib (60 mg/kg BID), alpelisib (40 mg/kg QD), or the combination for 10 days. On day 10, tumors were collected from all cohorts at 2 and 24 hours after the final dose of alpelisib for immunohistochemistry and immunoblot analysis. […] Addition of tipifarnib blocked this rebound and promoted cell cycle arrest as indicated by decreased Rb phosphorylation.

[6] = tested on: HSC2 (H1047R); test: PI3K-mTOR signaling by immunoblot; assay type: cell-based; settings: 1 h and 24 h
Procedure: PI3K-mTOR Signaling in PIK3CA-mutant HSC2 Cell Line. The PIK3CA-mutant HNSCC cell line HSC2 (H1047R) was treated with the tipifarnib-alpelisib combination and mTOR activity was assessed by immunoblot.

[7] = tested on: cell lines harboring PIK3CA mutation or amplification; test: Growth of PIK3CA-altered HNSCC cell lines, monolayer and spheroid cultures; assay type: cell-based
Procedure: (§3) Because a farnesyltransferase inhibitor may block hyperactivated growth factor signaling at multiple nodes, including HRas protein and Rheb protein, the impact of tipifarnib on the growth of PIK3CA-altered HNSCC models and HRAS-mutant HNSCC models in vitro and in vivo was examined. For tumor spheroid growth assays, cells were resuspended in 4% Matrigel and seeded in 96-well ultralow attachment plates at a density of 1-1.5K cells/well. The following day, spheroids were treated with alpelisib and/or tipifarnib and baseline growth measured using 3D Cell Titer Glo reagent (Promega). Spheroids were incubated with drug for 7 days and a final CTG reading taken. Percentage growth was calculated by[(Ti−Tz)/(C−Tz)]×100 for concentrations for which Ti>/=Tz and [(Ti−Tz)/Tz]×100 for concentrations for which Ti<Tz, where Tz=time zero, C=control growth, and Ti=test growth at each drug concentration. […] Consistently, in PIK3CA mutant/amplified PDX models, the tipifarnib-alpelisib doublet led to deeper antitumor responses compared to alpelisib monotherapy.

[8] = tested on: Rheb protein; test: Lysosome extraction by density gradient ultracentrifugation and immunoblot; assay type: cell-based; settings: CAL33 cells, versus DMSO
Source text: Active Rheb protein is thought to localize to lysosomes to regulate mTOR activity. Density gradient ultracentrifugation was utilized to extract lysosomes from CAL33 cells treated with DMSO or tipifarnib. Lysosomes were lysed and subjected to immunoblot analysis alongside whole-cell lysate (WCL), FIG. 4. LAMP1 is a lysosome-specific marker and is used in this assay.

[9] = tested on: HRAS and RHEB; test: Subcellular fractionation and immunoblot of cytosol and membrane fractions; assay type: cell-based; settings: CAL33, BICR22, and SCC9 cells; 1 μM tipifarnib (48 hr)
Procedure: as §1
CAL33, BICR22, and SCC9 cells were treated with DMSO, 250 nM alpelisib (24 hr), 1 μM tipifarnib (48 hr), or the combination.

[10] = tested on: UM-SCC-17B (Q61L); test: HRAS-mutant cell line spheroid growth, checkerboard, 7 days; assay type: cell-based
Procedure: as §3
Inhibition of HRAS-mutant cell line spheroid growth by tipifarnib and/or alpelisib. The HRAS-mutant HNSCC cell line UM-SCC-17B (Q61L) was cultured as 3D tumor spheroids and treated with tipifarnib and/or alpelisib in a checkerboard dose-response fashion for 7 days.

[11] = molecular target: geranylgeranyltransferase type 1 (Homo sapiens, UniProt P53609); settings: cited from earlier work

SMILES	Cleaved PARP (% positive cells) [1] [% positive cells]	Ki67 (% positive cells) [1] [% positive cells]	Pathway activity, cell cycle and apoptotic markers (immunoblot) [2]	Pathway activity, cell cycle and apoptotic markers (immunoblot) [3]	Pathway activity, cell cycle and apoptotic markers (immunoblot) [4]	mTOR activity (4EBP1, S6 phosphorylation) ([5]; alpelisib 40 mg/kg QD, tumors collected 2 and 24 hours after final alpelisib dose)	mTOR activity (phospho-S6K and S6) and PARP cleavage [6]	Proliferation / cytotoxicity [7]	Lysosomal localization of Rheb protein [8]	Farnesylation of HRAS and RHEB (immunoblot) [5]	Membrane localization of HRAS and RHEB [9]	Cytotoxicity in 3D tumor spheroids [10]	Inhibition of geranylgeranyltransferase type 1 [11]
Cc1nc(NC(=O)N2CCC[C@H]2C(N)=O)sc1-c1ccnc(C(C)(C)C(F)(F)F)c1 [Alpelisib, (2S)—N^1-[4-Methyl-5-[2-(2,2,2-trifluoro-1,1-dimethylethyl)-4-pyridinyl]-2-thiazolyl]-1,2-pyrrolidinedicarboxamide]	5.1 ± 0.4	53.7 ± 9.8	rapidly inhibited the activity of AKT, mTOR, and ERK	transiently reduced	transiently reduced	transiently inhibited mTOR activity	transiently inhibited						
Cn1cncc1[C@@](N)(c1ccc(Cl)cc1)c1ccc2c(c1)c(-c1cccc(Cl)c1)cc(=O)n2C [Tipifarnib, (R)-6-[amino(4-chlorophenyl)(1-methyl-1H-imidazol-5-yl)methyl]-4-(3-chlorophenyl)-1-methyl-2(1H)-quinolinone]	4.9 ± 2.1	35.1 ± 8.1						reduced proliferation of both monolayer and spheroid cultures	markedly diminished the lysosomal localization of Rheb protein	resulted in defarnesylation of HRAS and RHEB	resulted in the membrane delocalization of the majority of HRAS and RHEB in all three cell types	induced cytotoxicity	not an inhibitor of geranylgeranyltransferase type 1
